Results as given in BindingDB's records for doi:10.1021/jm00195a008 (1979).

Biological target: DNA-directed RNA polymerase subunit alpha/beta/beta'/omega (Escherichia coli (strain K12), UniProt P0A7Z4+P0A800+P0A8T7+P0A8V2)
Assay: Inhibition of Escherichia coli DNA-dependent RNA polymerase

DNA-directed RNA polymerase subunit alpha/beta/beta'/omega, sequence (P0A8V2 whole entry): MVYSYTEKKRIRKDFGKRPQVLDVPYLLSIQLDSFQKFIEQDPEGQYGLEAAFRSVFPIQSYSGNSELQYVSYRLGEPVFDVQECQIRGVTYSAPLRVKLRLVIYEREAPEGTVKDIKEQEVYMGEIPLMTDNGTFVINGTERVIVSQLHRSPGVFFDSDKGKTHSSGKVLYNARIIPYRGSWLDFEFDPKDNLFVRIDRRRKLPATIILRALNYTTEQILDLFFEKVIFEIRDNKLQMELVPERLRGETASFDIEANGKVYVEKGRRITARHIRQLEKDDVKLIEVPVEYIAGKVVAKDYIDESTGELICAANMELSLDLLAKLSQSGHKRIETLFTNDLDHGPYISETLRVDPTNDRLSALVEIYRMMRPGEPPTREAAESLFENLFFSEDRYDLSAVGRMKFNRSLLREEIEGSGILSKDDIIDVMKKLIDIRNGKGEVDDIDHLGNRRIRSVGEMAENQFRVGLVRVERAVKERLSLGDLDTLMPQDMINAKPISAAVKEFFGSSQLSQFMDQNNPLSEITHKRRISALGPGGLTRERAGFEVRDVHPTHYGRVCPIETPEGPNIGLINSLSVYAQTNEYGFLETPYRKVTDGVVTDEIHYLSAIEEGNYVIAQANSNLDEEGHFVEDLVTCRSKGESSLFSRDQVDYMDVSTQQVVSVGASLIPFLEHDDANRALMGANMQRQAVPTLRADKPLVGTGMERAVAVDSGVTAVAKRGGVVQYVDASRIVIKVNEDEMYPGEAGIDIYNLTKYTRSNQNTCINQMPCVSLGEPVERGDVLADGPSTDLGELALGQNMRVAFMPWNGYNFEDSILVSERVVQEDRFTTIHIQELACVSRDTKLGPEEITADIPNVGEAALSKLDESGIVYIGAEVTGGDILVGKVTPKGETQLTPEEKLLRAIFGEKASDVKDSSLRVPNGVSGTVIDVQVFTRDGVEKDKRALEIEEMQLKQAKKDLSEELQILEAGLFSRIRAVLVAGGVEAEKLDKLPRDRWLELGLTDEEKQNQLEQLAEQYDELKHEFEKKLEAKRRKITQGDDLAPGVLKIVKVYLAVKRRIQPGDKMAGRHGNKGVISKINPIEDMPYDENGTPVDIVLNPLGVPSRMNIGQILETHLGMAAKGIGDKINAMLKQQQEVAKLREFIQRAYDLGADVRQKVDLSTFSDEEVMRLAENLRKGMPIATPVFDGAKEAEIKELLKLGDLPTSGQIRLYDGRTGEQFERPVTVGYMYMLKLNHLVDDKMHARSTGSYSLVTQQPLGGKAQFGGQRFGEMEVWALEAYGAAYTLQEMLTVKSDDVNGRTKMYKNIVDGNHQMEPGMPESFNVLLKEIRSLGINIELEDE
DNA-directed RNA polymerase subunit alpha/beta/beta'/omega, sequence (P0A7Z4 whole entry): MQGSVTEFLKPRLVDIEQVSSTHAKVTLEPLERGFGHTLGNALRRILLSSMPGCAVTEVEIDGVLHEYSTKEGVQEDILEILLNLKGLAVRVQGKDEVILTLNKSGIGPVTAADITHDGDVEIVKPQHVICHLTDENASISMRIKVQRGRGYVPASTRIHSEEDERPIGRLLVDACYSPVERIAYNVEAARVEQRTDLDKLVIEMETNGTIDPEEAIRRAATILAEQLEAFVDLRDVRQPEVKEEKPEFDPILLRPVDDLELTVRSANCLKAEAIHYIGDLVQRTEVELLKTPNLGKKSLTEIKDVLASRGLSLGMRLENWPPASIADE
DNA-directed RNA polymerase subunit alpha/beta/beta'/omega, sequence (P0A8T7 whole entry): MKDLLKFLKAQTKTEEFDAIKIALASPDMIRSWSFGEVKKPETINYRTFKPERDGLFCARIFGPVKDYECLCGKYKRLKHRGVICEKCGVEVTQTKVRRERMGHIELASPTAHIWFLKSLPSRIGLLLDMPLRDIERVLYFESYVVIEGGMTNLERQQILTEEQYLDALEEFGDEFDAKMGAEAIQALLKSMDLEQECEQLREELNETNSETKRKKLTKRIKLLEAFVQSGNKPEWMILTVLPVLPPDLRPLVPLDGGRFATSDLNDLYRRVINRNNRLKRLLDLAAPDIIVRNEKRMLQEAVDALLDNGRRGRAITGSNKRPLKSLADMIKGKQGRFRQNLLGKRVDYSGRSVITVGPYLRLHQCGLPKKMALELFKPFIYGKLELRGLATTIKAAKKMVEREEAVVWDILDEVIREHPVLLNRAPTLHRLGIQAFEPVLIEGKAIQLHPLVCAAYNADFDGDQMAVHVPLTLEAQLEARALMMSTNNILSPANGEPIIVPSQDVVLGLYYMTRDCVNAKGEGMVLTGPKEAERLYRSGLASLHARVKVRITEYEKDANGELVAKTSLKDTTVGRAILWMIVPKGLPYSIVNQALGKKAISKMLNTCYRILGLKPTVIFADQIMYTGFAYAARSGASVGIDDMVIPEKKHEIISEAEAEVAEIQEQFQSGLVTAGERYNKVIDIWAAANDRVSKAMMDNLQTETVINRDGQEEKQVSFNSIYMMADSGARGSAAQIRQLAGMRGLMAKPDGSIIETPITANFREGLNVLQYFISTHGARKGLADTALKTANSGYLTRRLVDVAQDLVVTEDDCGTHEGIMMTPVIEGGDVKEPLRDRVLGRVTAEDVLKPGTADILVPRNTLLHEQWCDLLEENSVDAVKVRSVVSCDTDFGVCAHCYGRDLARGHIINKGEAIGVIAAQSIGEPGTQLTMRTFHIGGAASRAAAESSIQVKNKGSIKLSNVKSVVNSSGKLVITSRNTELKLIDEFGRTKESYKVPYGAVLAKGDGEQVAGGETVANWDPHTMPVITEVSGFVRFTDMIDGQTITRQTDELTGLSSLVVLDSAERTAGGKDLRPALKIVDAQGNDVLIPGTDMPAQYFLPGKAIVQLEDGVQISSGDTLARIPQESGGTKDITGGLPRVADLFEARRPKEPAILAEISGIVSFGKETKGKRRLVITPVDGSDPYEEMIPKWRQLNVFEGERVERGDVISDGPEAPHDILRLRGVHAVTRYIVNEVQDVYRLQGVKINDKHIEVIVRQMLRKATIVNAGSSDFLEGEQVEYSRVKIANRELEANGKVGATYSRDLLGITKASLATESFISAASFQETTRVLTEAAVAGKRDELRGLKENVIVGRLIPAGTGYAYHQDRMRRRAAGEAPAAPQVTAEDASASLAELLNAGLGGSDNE
DNA-directed RNA polymerase subunit alpha/beta/beta'/omega, sequence (P0A800 whole entry): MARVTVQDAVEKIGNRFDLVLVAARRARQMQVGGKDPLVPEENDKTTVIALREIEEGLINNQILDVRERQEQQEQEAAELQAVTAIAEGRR

Cc1c2oc3c(C)ccc(C(=O)N[C@@H]4C(=O)N[C@H](C(C)C)C(=O)N5CCC[C@H]5C(=O)N(C)CC(=O)N(C)[C@@H](C(C)C)C(=O)O[C@@H]4C)c3nc-2c(C(=O)N[C@@H]2C(=O)N[C@H](C(C)C)C(=O)N3CCC[C@H]3C(=O)N(C)CC(=O)N(C)[C@@H](C(C)C)C(=O)O[C@@H]2C)c(NC2CC(C)(C)[N+]([O-])C(C)(C)C2)c1=O
IC50: 2.8 µM
